Source: patent US11642332B2, “(2R,4R)-5-(5′-chloro-2′-fluorobiphenyl-4-yl)-2-hydroxy-4-[(5-methyloxazole-2-carbonyl)amino]pentanoic acid” (THERAVANCE BIOPHARMA R&D IP, LLC, priority 2015, dated 2023)
Where two headings read alike, the source gives them in different places.

Experiments:
[1] = biological target: T1, human neprilysin (EC 3.4.24.11; NEP) (Homo sapiens, UniProt P08473); assay: In vitro assay for the quantitation of inhibitor potency at human NEP; assay type: biochemical; details: recombinant human NEP, fluorogenic peptide substrate 10 μM, 37° C.; read-out: pKi at human NEP (converted)
T1 construct: purchased R&D Systems 1182-ZN
Experimental: The inhibitory activity at human neprilysin (EC 3.4.24.11; NEP) was determined as follows.
Recombinant human NEP was obtained commercially (R&D Systems, Minneapolis, Minn., catalog number 1182-ZN). The fluorogenic peptide substrate Mca-D-Arg-Arg-Leu-Dap-(Dnp)-OH (Medeiros et al. (1997) Braz. J. Med. Biol. Res. 30:1157-62; Anaspec, San Jose, Calif.) was used.
The assay was performed in 384-well white opaque plates at 37° C. using the fluorogenic peptide substrate at a concentration of 10 μM in Assay Buffer (50 mM HEPES, pH 7.5, 100 mM NaCl, 0.01% polyethylene glycol sorbitan monolaurate (Tween-20), 10 μM ZnSO4).
Test compounds were assayed over the range of concentrations from 10 μM to 20 pM. Test compounds were added to the enzyme and incubated for 30 minute at 37° C. prior to initiating the reaction by the addition of substrate. Reactions were terminated after 20 minutes of incubation at 37° C. by the addition of glacial acetic acid to a final concentration of 3.6% (v/v).
Plates were read on a fluorometer with excitation and emission wavelengths set to […]. Inhibition constants were obtained by nonlinear regression of the data using the equation (GraphPad Software, Inc., San Diego, Calif.): v=v0/[1+(I/K′)] where v is the reaction rate, v0 is the uninhibited reaction rate, I is the inhibitor concentration and K′ is the apparent inhibition constant.
The compounds were tested in this assay and found to have pKi values at human NEP as follows.

[2] = Renal excretion of Compound 1 in rat; assay type: in vivo, male Sprague Dawley rats; details: IV 0.5 mg/kg
Experimental: An important factor for insuring appropriate long term drug dosing and correct steady-state drug concentrations in patients is drug clearance. In general, decreased drug clearance results in higher drug concentrations and greater drug effects. In order to understand renal clearance of Compound 1, the percent of administered dose recovered in urine following a single IV dose was assessed in three animal species. Three separate studies in male Sprague Dawley rats, male beagle dogs and male cynomolgus monkeys, respectively, were conducted and the procedure and experimental results are described below.
Male Sprague Dawley rats (N=3), having body weights of 0.348 to 0.362 kg, received an IV dose of Compound 1 at 0.5 mg/kg as part of a dosing cassette. Compound 1 was dissolved in 5% NaHCO3 in D5W (5% dextrose in water, pH 7.4) and filtered through a […] polyvinyl difluoride (PVDF) syringe filter prior to administration. The rats had access to food ad libitum before and after administration of Compound 1. Urine samples were collected in metabolic cages and maintained on frozen dry ice during collection. The samples were thawed and the volume of the urine was recorded. An aliquot of the urine sample was transferred to a polypropylene storage tube, frozen and stored (−80° C.) prior to bioanalysis.
Rat urine concentrations of Compound 1 were determined by LC/MS/MS. […]

[3] = IV/PO pharmacokinetic study in dogs; assay type: in vivo, male beagle dogs; parameters: AUC(0-t): concentration or dose not given beside the values; details: dog; for AUC(0-t): read-out: AUClast Mean
Experimental: Each rat or dog PK study began with formulation of the test compound. Appropriate masses of each test compound were added into a volume of vehicle (e.g. 5% sodium bicarbonate, 5% dextrose in H2O) such that the final concentration of each compound was appropriate to be dosed at 2 mL/kg. Although a homogenous suspension were acceptable for oral dosing, intravenous dosing solutions were sterile-filtered (0.2 μm) prior to dosing to ensure no particulates were administered.
In the dog study, male beagle dogs (3 per route) housed at Agilux Laboratories (Worcester, Mass.) and weighing between 7-12 kg received either a single oral gavage or a single intravenous (via indwelling catheter) dose of the dosing solution. The final dose was typically 0.1-2 mg/kg. Serial blood samples were harvested via direct venipuncture at 3 minutes, 15 minutes, 30 minutes, 1 hour, 2 hours, 4 hours, 6 hours, 8 hours, 12 hours, and 24 hours post-dose. All samples were collected manually into microtainer tubes containing EDTA as the anticoagulant and were processed to plasma by refrigerated centrifugation.
Plasma samples were extracted with 3 volumes of MeCN containing a suitable internal standard. Extracts were reconstituted into 3 volumes of water containing 1% formic acid, and analyzed via HPLC-coupled MS/MS. Plasma concentration-time data were analyzed using the Phoenix software (Pharsight Corp., St. Louis, Mo.) to calculate pharmacokinetic parameters.
Plasma clearance was determined from the intravenous arm of the study, and represents the rate at which plasma is cleared of drug. It is equal to the dose divided by the area under the plasma concentration-time curve. In addition to plasma clearance, it is also essential for an orally administered drug to reach efficacious systemic levels following oral delivery. Oral bioavailability is a measurement of plasma exposures following oral administration relative to exposures following intravenous administration.

T1 sequence (P08473 52-750 limits assumed): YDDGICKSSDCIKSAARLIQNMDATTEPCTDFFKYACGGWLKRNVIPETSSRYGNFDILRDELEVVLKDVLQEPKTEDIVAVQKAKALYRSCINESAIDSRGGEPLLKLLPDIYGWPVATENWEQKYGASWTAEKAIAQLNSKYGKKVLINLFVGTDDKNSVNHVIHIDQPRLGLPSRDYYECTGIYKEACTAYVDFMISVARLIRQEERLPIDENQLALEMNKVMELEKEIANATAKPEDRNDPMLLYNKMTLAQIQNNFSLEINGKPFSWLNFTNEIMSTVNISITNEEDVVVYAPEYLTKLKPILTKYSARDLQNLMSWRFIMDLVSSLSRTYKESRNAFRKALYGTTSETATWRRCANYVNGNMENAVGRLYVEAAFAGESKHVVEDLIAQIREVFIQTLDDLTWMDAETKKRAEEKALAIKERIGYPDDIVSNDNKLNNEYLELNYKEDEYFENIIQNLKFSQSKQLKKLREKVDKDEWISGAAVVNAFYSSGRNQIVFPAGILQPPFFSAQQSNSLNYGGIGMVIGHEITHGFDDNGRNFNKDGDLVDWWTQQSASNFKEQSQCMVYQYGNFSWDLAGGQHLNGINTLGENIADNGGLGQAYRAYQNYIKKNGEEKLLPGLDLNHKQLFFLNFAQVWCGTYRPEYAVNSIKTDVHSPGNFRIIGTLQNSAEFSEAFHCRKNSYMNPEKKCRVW

Ki [1]: 0.2 nM | Amount of Compound 1 Excreted in Urine over Collection Period (0-24 hrs) Mean [2]: 0.0462 µg | CLlast Mean ([3]; IV): 4.83 mL/min/kg | AUC(0-t) ([3]; male, beagle, plasma, IV): 510 ng·h/mL | bioavailability ([3]; male, beagle, plasma, PO vs IV AUClast): > 100% | AUC(0-t) ([3]; male, beagle, plasma, PO): 530 ng·h/mL
Compound: Cc1cnc(C(=O)N[C@H](Cc2ccc(-c3cc(Cl)ccc3F)cc2)C[C@@H](O)C(=O)O)o1 [Compound 1, (2R,4R)-5-(5′-Chloro-2′-fluorobiphenyl-4-yl)-2-hydroxy-4-[(5-methyloxazole-2-carbonyl)amino]pentanoic Acid]
